Consider eleven substances from patent publication US20030148462A1, “Dual inhibition of sister chromatid separation at metaphase” (President and fellows of Harvard College, priority 2001, published 2003).

One series concerns the target T1, separase Ser1126 (Homo sapiens, UniProt Q14674).
T1 construct: Full-length human separase was PCR-amplified from a human fetal thymus cDNA library; made in house; host or cells: 293T cells (cotransfected, unsynchronized)
As to the kind of experiment: Ser1126-specific in vitro kinase assays with LC-MS/MS. The settings on record: securin/separase from unsynchronized 293T cells, 1 mM ATP. The series is classed as biochemical. From the text: (A) depicts FACS and Western analyses of synchronized HeLaS3 cells undergoing mitosis. (B) depicts quantification of cell cycle distribution and phosphorylation status of separase at Ser1126 for the samples shown in (A). (C) depicts a nano-scale microcapillary LC-MS/MS analysis of native separase phosphorylation state. Shown are the selected reaction, extracted-ion chromatograms corresponding to the unphosphorylated (upper trace) and phosphorylated (bottom trace) Glu1115-Lys1130 native tryptic peptide (blue and green) and heavy internal standard (brown and red). Inset: Averaged selected reaction m/z window corresponding to the y10-ion fragment of light and heavy peptides. (D) depicts […] in vitro kinase assays. Shown is the phosphorylation status of Ser1126 in percent as determined by incubation of affinity-purified securin/separase with various pure kinases in the presence of ATP (1 mM) followed by LC-MS/MS analysis. […] Top panel: Mock treatment.
For kinase assays, the securin/separase complex was isolated from unsynchronized, transfected cells and eluted with TEV protease without prior incubation in Xenopus extracts. […] Reactions with polo and auroraA (a gift from E. A. Nigg) were carried out as described (Bischoff et al. (1998) EMBO J 17:3052; Descombes et al. (1998) EMBO J 17:1328). All kinase assays were done in the presence of 1 mM ATP.
As a substrate, overexpressed securin/separase purified from transfected, unsynchronized 293T cells was used.
Coomassie stained securin and separase bands were digested in-gel (Shevchenko et al. (1996) Anal. Chem. 68:850). Extracted peptides were separated by nano-scale microcapillary high performance liquid chromatography (HPLC) as described (Gygi et al. (1999) Mol. Cell Biol. 19:1720). Eluting peptides were ionized by electrospray ionization and analyzed by an LCQ-DECA ion trap mass spectrometer (ThermoFinnigan). Peptide ions reaching a certain threshold were automatically selected for sequence analysis by tandem mass spectrometry. Peptide sequence was determined by data-searching against the non redundant human protein database using the Sequest algorithm (Eng et al. (1994) J. Am. Soc. Mass Spectrom. 5:1579).

Series [1] has as its system human metaphase chromosomes. As to the kind of experiment: Sister chromatid separation of human metaphase chromosomes in Xenopus extracts. The settings on record: for Separation of sister chromatids: high concentrations of Δ90 (400 nm), human chromosomes in Xenopus extract. Here is the method: CSF extracts were prepared as described (Murray (1991) Methods Cell Biol. 36:581). For sister chromatid separation assays two sources of chromosomes were used, Xenopus sperm nuclei and isolated human metaphase chromosomes. Xenopus sperm nuclei were prepared as described by Philpott et al. ((1991) Cell 65:569). When they were used, the protocol developed by Murray and colleagues was followed (Holloway et al. (1993) Cell 73:1393) with the exception that Δ90 was usually added later, about 50 minutes after CSF. Re-isolation of Xenopus chromosomes was done according to Funabiki and Murray ((2000) Cell 102:411). When human chromosomes were used, the KCl concentration was lowered to 70 mM. Δ90 and isolated securin/separase (0.1 volumes) were added 20 minutes after addition of human chromosomes. After additional 20 minutes at 20° C., Ca^2+ (0.6 mM) was added. Chromosomes were re-isolated from extracts 50 minutes thereafter. Analysis by immunofluorescence microscopy was performed as described (Wood et al. (1997) Cell 91:357). The percentage of separated chromosomes was calculated according to the following equation: % separation=(number of single chromatids/2)/[(number of single chromatids/2)+number of unseparated chromosomes].
It was next determined whether the PM-2 mutant would override the inhibition not only of cohesin cleavage but also of sister chromatid separation in high-Δ90 extracts. Since the biochemical experiments utilized human separase, the existing assay was modified to examine the separation of human metaphase chromosomes in Xenopus extracts. […] In the presence of wild type separase (supplied as purified securin/separase complexes) and high concentrations of Δ90 (400 nm), only 2.7% of the chromosomes separated (FIG. 5A, row 2). […] In contrast, PM-2 (Ser 1126) led to maximal separation of sister chromatids (68%) under the same conditions (FIG. 5A, row 5). Similar results were obtained with PM-2/4 and PM-2^Asp; they caused 68% and 66% separation, respectively (FIG. 5A, rows 4 and 7). A Western blot for separase was performed to assure that similar amounts of the various separases had been used in the experiment (FIG. 5B).

In another series the test system is cohesin^hSCC1. As to the kind of experiment: In vitro separase activity assay (self-cleavage and cohesin hSCC1 cleavage) after low- or high-Δ90 extract. The series is classed as biochemical, human. The settings on record: for Separase self-cleavage and cohesin hSCC1 cleavage after low- versus high-Δ90 extract: low or high CDC2 activity extract. From the text: To address whether high CDC2 activity blocked the activity of separase, an in vitro separase activity assay was developed. Plasmids coding for human securin and tagged human separase were transfected into 293T cells as follows.
Human cohesin^hSCC1 was isolated from the a human fetal thymus cDNA library using the following primers: 5′-[…]-3′ (SEQ ID NO:8) and 5′-[…]-3′ (SEQ ID NO:9). Both separase and securin were subcloned into the multi-purpose expression vector pCS2 (various versions). The resulting plasmids were utilized for transfection into 293T cells and for in vitro expression in TNT™ reticulocyte lysate (Promega). For immunoprecipitation of separase, two types of N-terminal tags were fused to the amino terminus of separase, three HA tags (FIG. 2A) or two IgG binding domains of protein A followed by four TEV-protease cleavage sequences (ZZ-TEV4-tag; FIGS. 2B, 4B, 5, 6B to E, and 7). Both versions of separase gave essentially the same results. Site directed mutagenesis was performed using either the QuickChange kit (Stratagene) or the GeneEditor system (Promega). All mutations were confirmed by DNA sequencing of manipulated regions.
To obtain securin/separase complexes, 293T cells were cotransfected with separase and securin expression plasmids using a calcium phosphate based method and subsequently synchronized as described (Fang et al. (1998) Mol. Cell 2:163). Two days after transfection, the nocodazole-arrested cells were lysed in 20 mM Tris/HCl pH 7.7, 100 mM NaCl, 1 mM NaF, 20 mM β-glycerophosphate, 5 mM MgCl2, 0.1% Triton X100, 1 μM microcystin-LR. After ultra-centrifugation at 100,000 g, the supernatant was mixed with anti-HA agarose (3F10, Roche) or IgG-sepharose (Amersham), depending on the tag of separase. For a 10 cm dish of confluent, transfected cells (corresponding to roughly 100 μl cell pellet), 20 μl of beads were used. After rotation overnight at 4° C. the beads were washed twice with CSF-XB (Murray (1991) Methods Cell Biol. 36:581) and then incubated with various Xenopus egg extracts. To prepare low- or high-Δ90 extracts, CSF extracts were supplemented with various concentrations of Δ90. Fifteen minutes thereafter, Ca^2+ was added (0.6 mM) and the extracts were further incubated for 15 minutes before adding them to the securin/separase beads. After 1 hour, the beads were washed twice with CSF-XB, once with 30 mM Hepes/KOH pH 7.7, 30% glycerol, 25 mM NaF, 25 mM KCl, 5 mM MgCl2, 1.5 mM ATP, 1 mM EGTA, and eluted with HA peptide (1 mg/ml) or TEV-protease (2 mg/ml) in 20 to 50 μl. Two μl of separase were combined with 2 μl of in vitro translated ^35S-cohesin^hSCC1 and incubated for 1 hour at 37° C. Alternatively, 2 μl of isolated metaphase chromosomes (8.7 μg DNA per μl) were used as a substrate.
Each mutant was incubated in either low- (odd numbered lanes) or high-Δ90 extract (even numbered lanes) before analyzing separase self-cleavage by immuno-blot (top panels) and cohesin^hSCC1 cleavage by autoradiography (middle and lower panels).

The subject of another series is separase. The experiment in a line: Re-inhibition of pre-activated separase by recombinant securin (cohesin hSCC1 cleavage). The settings on record: equal amounts of separase. It counts as biochemical, human. Here is the method:
FIGS. 7A-7C depict the independent inhibition of separase activity by phosphorylation of separase and by binding of securin. (A) depicts a Western blot (upper panel) and cohesin^hSCC1 cleavage activity using isolated chromosomes as substrate (lower panel). Lane 2: Consecutive treatment of separase with high-Δ90 extract twice. (B) depicts separase that had been pre-activated in low-Δ90 extract that was eluted and incubated with recombinant securin (lanes 2 and 3) or reference buffer (lane 1) for one hour on ice. Subsequently, its cleavage activity towards in vitro translated ^35S-cohesin^hSCC1 was tested (upper panel). The separase concentration in each reaction was 4 nM, as estimated by Coomassie staining. To compare wild type separase with PM-2/4 mutant separase in its ability to bind securin the same experiment was repeated with PM-2/4 (lower panel). Roughly equal separase concentrations in both cases were assured by comparative immunoblotting (see FIG. 4B, lanes 15 and 17). (C) depicts a model for the dual inhibition of separase in metaphase and its activation at anaphase onset. PPase denotes an unknown protein phosphatase that is proposed to act on phosphorylated separase.
To determine whether securin can inhibit separase independent of the phosphorylation state of separase, and whether separase that has already been activated and has therefore cleaved itself be re-inhibited by either of the two inhibitory mechanisms, active separase was generated by treating a securin/separase complex with a low-Δ90 extract (L; FIG. 7) to degrade securin and dephosphorylate separase. […] Active separase on beads was then incubated with either recombinant securin or a high-Δ90 extract and assayed for its ability to cleave cohesin^hSCC1. […]

The next series concerns T2, recombinant securin.
T2 sequence (O95997 2-202, species assumed, looked up): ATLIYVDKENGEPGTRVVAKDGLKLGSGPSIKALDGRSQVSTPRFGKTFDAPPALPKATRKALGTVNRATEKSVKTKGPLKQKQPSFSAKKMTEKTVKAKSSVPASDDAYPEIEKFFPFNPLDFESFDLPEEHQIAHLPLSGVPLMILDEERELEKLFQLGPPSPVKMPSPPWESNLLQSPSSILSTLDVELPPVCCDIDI

T1 sequence (Q14674 whole entry): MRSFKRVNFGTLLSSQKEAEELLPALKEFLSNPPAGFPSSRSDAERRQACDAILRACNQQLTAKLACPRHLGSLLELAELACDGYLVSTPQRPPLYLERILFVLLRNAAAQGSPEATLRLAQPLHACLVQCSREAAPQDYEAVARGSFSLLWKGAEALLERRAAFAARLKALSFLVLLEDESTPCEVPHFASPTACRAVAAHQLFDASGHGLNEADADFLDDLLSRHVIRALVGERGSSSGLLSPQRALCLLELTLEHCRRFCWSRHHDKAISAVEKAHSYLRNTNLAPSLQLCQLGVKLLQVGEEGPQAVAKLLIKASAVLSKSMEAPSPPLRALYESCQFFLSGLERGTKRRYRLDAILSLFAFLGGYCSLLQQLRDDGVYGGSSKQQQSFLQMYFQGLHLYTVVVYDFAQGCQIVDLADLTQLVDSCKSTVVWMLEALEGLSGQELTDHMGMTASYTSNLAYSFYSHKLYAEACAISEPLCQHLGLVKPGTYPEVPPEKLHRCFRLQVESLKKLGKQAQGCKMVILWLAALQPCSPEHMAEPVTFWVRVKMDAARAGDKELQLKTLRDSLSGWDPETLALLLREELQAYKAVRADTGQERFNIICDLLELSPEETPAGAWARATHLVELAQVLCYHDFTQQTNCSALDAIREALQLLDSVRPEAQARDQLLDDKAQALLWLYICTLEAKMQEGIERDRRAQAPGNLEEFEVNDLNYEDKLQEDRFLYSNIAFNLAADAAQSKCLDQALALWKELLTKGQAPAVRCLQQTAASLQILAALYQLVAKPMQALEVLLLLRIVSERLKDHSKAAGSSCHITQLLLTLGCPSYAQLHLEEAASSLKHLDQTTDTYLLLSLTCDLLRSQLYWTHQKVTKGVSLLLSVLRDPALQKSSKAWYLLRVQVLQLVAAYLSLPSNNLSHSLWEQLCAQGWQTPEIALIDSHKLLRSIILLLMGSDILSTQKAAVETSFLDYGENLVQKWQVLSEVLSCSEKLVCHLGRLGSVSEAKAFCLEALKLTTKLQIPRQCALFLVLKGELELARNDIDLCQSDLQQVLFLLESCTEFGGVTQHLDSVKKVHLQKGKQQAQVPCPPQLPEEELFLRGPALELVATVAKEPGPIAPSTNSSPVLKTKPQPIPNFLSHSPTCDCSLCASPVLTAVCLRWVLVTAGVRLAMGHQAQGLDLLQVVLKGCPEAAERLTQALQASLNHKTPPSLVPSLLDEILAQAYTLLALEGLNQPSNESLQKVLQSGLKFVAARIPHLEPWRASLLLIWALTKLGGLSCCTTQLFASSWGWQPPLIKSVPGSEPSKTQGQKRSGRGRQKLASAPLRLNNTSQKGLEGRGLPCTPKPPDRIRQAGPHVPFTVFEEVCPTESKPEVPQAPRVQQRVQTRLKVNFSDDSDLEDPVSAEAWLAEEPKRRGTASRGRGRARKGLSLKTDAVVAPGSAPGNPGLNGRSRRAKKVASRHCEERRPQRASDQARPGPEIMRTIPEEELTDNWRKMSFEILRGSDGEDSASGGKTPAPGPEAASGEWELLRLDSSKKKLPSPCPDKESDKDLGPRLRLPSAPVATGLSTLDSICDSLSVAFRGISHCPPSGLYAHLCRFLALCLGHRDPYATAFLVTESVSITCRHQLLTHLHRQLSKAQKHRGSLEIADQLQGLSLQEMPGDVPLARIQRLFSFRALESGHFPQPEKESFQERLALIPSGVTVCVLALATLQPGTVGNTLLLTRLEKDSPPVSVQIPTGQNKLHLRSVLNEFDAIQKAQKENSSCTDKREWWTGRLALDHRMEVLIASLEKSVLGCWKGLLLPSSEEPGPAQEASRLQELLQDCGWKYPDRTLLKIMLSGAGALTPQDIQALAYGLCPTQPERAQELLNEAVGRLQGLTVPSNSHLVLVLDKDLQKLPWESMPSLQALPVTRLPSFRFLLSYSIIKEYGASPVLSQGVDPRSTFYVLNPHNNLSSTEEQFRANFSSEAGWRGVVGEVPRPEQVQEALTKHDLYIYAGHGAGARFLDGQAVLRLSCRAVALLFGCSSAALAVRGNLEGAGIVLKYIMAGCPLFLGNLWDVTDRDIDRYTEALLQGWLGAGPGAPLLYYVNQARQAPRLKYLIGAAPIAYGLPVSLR
T1 sequence (O95997 whole entry partner): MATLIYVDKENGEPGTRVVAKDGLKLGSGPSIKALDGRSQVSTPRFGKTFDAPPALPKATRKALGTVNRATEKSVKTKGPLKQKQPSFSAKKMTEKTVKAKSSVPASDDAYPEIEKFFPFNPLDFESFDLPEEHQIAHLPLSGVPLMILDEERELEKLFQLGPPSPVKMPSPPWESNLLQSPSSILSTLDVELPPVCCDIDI

“CaMKII: calmodulin-dependent kinase II, from New England Biolabs”: in the series with separase Ser1126, the “Phosphorylation of Ser1126 by kinase” value is given as “not at all”.
Turning to “MAPK (ERK2): pure kinase from New England Biolabs”, the “Phosphorylation of Ser1126 by kinase” value with separase Ser1126 is “efficiently phosphorylated”.
For the substance “PM-2/4: separase phospho-mutant, sites 2 (Ser1126) and 4 (Thr1346) changed to alanine”, in series [1], the “Separation of sister chromatids” value was determined as 68%. Further, in series [1] (low-Δ90 extract plus saturating level of PM-2/4, data not shown), the “Maximal degree of sister chromatid separation” value was “about 70%”. Besides, the “Separase self-cleavage and cohesin hSCC1 cleavage after low- versus high-Δ90 extract” value in the series on cohesin^hSCC1 was “no longer inhibited”. Further, the “Separase activity relative to wild type after low-Δ90 extract” value in the series with cohesin^hSCC1 (low-Δ90 extract) was “higher than that of wild type separase”. In the series on separase, the “Inhibition of separase by securin, wild type versus mutant” value is listed as “inhibited at the same concentration of securin”.
As to “PM-2: single site separase phospho-mutant, site 2 (Ser1126) changed to alanine”, in series [1], the “Separation of sister chromatids” value stood at 68%. Also, the “Separase self-cleavage and cohesin hSCC1 cleavage after low- versus high-Δ90 extract” value in the series with cohesin^hSCC1 is “still largely resistant to inhibition”. For the same substance, the “Separase activity relative to wild type after low-Δ90 extract” value in the series on cohesin^hSCC1 (low-Δ90 extract) is reported as “higher than that of wild type separase”.
Consider “PM-2^Asp: separase with mutation of Ser1126 to aspartate”, for which, in series [1], the “Separation of sister chromatids” value turned out to be 66%. Further, in the series on cohesin^hSCC1, the “Separase self-cleavage and cohesin hSCC1 cleavage after low- versus high-Δ90 extract” value is reported as “still largely resistant to inactivation”.
For the substance “PM-4: single site separase phospho-mutant, site 4 (Thr1346) changed to alanine”, the “Separation of sister chromatids” value in series [1] is 38%. The “Separase self-cleavage and cohesin hSCC1 cleavage after low- versus high-Δ90 extract” value in the series on cohesin^hSCC1 is given as “inactivated by high CDC2 activity albeit less so than wild type separase”. Moreover, the “Separase activity relative to wild type after low-Δ90 extract” value in the series on cohesin^hSCC1 (low-Δ90 extract) was “higher than that of wild type separase”.
As to “auroraA: pure kinase, a gift from E. A. Nigg”, the “Phosphorylation of Ser1126 by kinase” value with separase Ser1126 is “not at all”.
For the substance “catalytically inactive separase: mutant separase in which the catalytic cysteine residue was replaced by a serine”, the “Separation of sister chromatids” value in series [1] is 0.4%. For the same substance, the Separase self-cleavage entry in the series with cohesin^hSCC1 (low-Δ90 extract) is “not cleaved”.
Turning to “human separase phospho-mutant PM-2/4 (Ser1126 and Thr1346 changed to alanine), with N-terminal ZZ-TEV4-tag”, in the series on recombinant securin, the “cohesin^hSCC1 cleavage by pre-activated separase” value is “both were inhibited at the same concentration of securin”.
“polo: pure kinase, a gift from E. A. Nigg”: in the series with separase Ser1126, the “Phosphorylation of Ser1126 by kinase” value was “not at all”.
Consider “wild type separase: human separase protein (SEQ ID NO:3), tagged, purified as securin/separase complex from 293T cells”, for which, in series [1], the “Separation of sister chromatids” value turned out to be 2.7%. In addition, the “Separase self-cleavage and cohesin hSCC1 cleavage after low- versus high-Δ90 extract” value in the series on cohesin^hSCC1 was “efficiently at low but not at high CDC2 activity”. For the same substance, in the series on separase, the “Inhibition of separase by securin, wild type versus mutant” value was “inhibited at the same concentration of securin”.
